Converted amounts (≈) assume the structure as drawn.
Tests used:
Assay type in all cases: cell-based
[1] = test system: MCF-7 estrogen receptor-positive breast cancer cells; experiment: […]-GLO luminescent cell viability assay, MCF-7; conditions: Homo sapiens, MCF7, MCF-7 cells, 5000 cells/well, 72 h at 37° C.
Protocol: (§1) All the compounds are tested in three cell lines. Different concentration of compounds, ranging from about 0.01 nM to about 100,000 nM were delivered to 5×10^3 cells per well, which were then incubated for three days at 37° C., followed by CTG assay.
(§2) In this assay, the number of viable cells in culture is determined based on the quantification of ATP present, which signals the presence of metabolically active cells. Damaged cells are not detected as the ATP leaked from these cells is quickly consumed by ATPases that are also released upon damage). The amount of ATP is determined using a system based on luciferase and D-luciferin resulting in light generation.
(§3) The cell lines were plated in 13, 96 well plates at a density of 5000 cells/well in total volumes of 50 μL in phenol-red free medium and incubated for overnight.
(§4) 25 μL of 40 nM estradiol should be added to all appropriate wells on the plate. […] 25 μL of stocks (containing the compounds to be tested, DMSO and phenol-red free medium) were added to cells and medium already on plate. 50 μL of medium were added to media wells, and 50 μL of mix (contain 32 mL DMSO+768 mL phenol-red free medium) to all vehicle control wells.
(§5) Luminescence results were read on TriLux Luminometer. The luminescent signal is proportional to the number of active cells present in culture. […] As a consequence, the number of metabolically active cells can be directly derived from the luminescent signal using a specific calibration curve. Data were expressed as percentage of untreated control (i.e. treatment value-blank/vehicle value blank), mean±SE for three replications.

Ishikawa cells = experiment: […]-GLO luminescent cell viability assay, Ishikawa; conditions: Homo sapiens, 5000 cells/well, 72 h at 37° C.
Protocol: as §1, §2, §3, §4, §5

[2] = test system: MDA-MB-231 estrogen receptor-negative breast cancer cell line; experiment: […]-GLO luminescent cell viability assay, MDA-MB-231; conditions: Homo sapiens, MDA-MB-231 cells, 5000 cells/well, 72 h at 37° C.
Protocol: as §1, §2, §3, §4, §5

Row | IC50 [1] [µg/mL] | IC50 [2] [µg/mL] | Structure (SMILES) | IC50 (Ishikawa cells) [µg/mL]
1 | 0.7 (≈ 2.63 µM) | 1.02 (≈ 3.83 µM) | Cc1ccc(C(=O)NN2CCc3ccccc3C2)cc1 [Redda-GM-3-19] | 0.44 (≈ 1.65 µM)
2 | 0.63 (≈ 2.5 µM) | 0.74 (≈ 2.93 µM) | O=C(NN1CCc2ccccc2C1)c1ccccc1 [Redda-GM-3-15, N-(3,4-dihydroisoquinolin-2-(1H)-yl)benzamide] | 0.23 (≈ 0.912 µM)
3 | 0.71 (≈ 2.48 µM) | 0.8 (≈ 2.79 µM) | O=C(NN1CCc2ccccc2C1)c1ccc(Cl)cc1 [Redda-GM-3-18, 4-chloro-N-(3,4-dihydroisoquinolin-2(1H)-yl)bemamide] | 0.61 (≈ 2.13 µM)
4 | 1.27 (≈ 3.99 µM) | 0.76 (≈ 2.39 µM) | COc1ccc(S(=O)(=O)NN2CCc3ccccc3C2)cc1 [Redda-CM-3-13, N-(3,4-dihydroisoquinolin-2(1H)-yl)-4-methoxybenzenesulfonamide] | 0.45 (≈ 1.41 µM)
5 | 0.93 (≈ 3.29 µM) | 0.78 (≈ 2.76 µM) | COc1ccc(C(=O)NN2CCc3ccccc3C2)cc1 [Redda-GM-3-16, N-(3,4-dihydroisoquinolin-2(1H)-yl)-4-methoxybenzamide] | 0.21 (≈ 0.744 µM)

From patent publication US8546426B2, “N-aminotetrahydroisoquinolines as anti-cancer agents” (Florida A&M University Board of Trustees, priority 2011, dated 2013)
